Target: T1, human Nav1.2 (Homo sapiens, UniProt Q99250)
T1 construct: host or cells: HEK
Assay: hNav1.2 functional block, whole-cell patch clamp
Type: cell-based
Protocol: Of the 20 analogs tested, six had [^3H]-BTX displacement characteristics much greater then that of phenyloin (Table 7), see Schemes 5, 6, 7 and 8 for the chemical synthesis and structure of the tested compounds. Compound 26, having the greatest [^3H]-BTX displacement at 86% ([…]), was further tested for VGSC functional blocking ability in HEK cells stably expressing Nav1.2 (Table 8).
In addition the functional blocking ability of 9 was tested after site two affinities was confirmed. The potential reason for this increased blocking ability stems from the dansyl addition in a hydrophobically receptive region of the binding site in the VGSC (Anderson, J. D., et al. Mol. Cancer. Ther. 2003, 2, 1149-1154; Lenkowski, P et al. Neuropharmacology, 2007, 52, 1044-1054). This enhanced potency could be due to the dansyl substituent interacting with L1465 and 11469, located in S6 of domain III in the binding site, which are believed to be the source of hydrophobic receptivity 17. The ability to inhibit VGSC currents is an important property and represents functional blocking. The ability of CDPNS to inhibit sodium channel currents was assessed at 10 and 100 μM against human Nav1.2 by patch clamp assay (FIG. 10).
Human embryonic kidney cells (HEK) cells stably expressing human Nav1.2 were a kind gift from Dr. H. A. Hartmann (University of Baltimore, Md., USA) and were grown in DMEM/F12 media (Invitrogen, Corp, CA, USA) supplemented with 10% fetal bovine serum, penicillin (100 U/ml), streptomycin (100 μg/ml) and G418 (500 μg/ml; Sigma, Mo., USA). Cells were grown in a humidified atmosphere of 5% CO2 and 95% air at 37° C.
Sodium currents were recorded using the whole-cell configuration of the patch clamp recording technique with an Axopatch 200 amplifier (Axon Instruments, Foster City, Calif.). All voltage protocols were applied using pCLAMP 9 software (Axon, USA) and a Digidata 1322A (Axon, USA). Currents were amplified and low pass filtered (2 kHz) and sampled at 33 kHz. Borosilicate glass pipettes were pulled using a Brown-Flaming puller (model P87, Sutter Instruments Co, Novato, Calif.) and heat polished to produce electrode resistances of 0.5-1.5 MΩ when filled with the following electrode solution (in mM); CsCl 130, MgCl2 1, MgATP 5, BAPTA 10, HEPES 5 (pH adjusted to 7.4 with CsOH). Cells were plated on glass coverslips and superfused with solution containing the following composition; (in mM) NaCl 130, KCl 4, CaCl2 1, MgCl2 5, HEPES 5, and glucose 5 (pH adjusted to 7.4 with NaOH).
Compound 26 was prepared as 100 mM stock solutions in dimethyl sulfoxide (DMSO) and diluted to desired concentration in perfusion solution. The maximum DMSO concentration used was 0.1% and had no effect on current amplitude. All experiments were performed at room temperature (20-22° C.). After establishing whole-cell, a minimum series resistance compensation of 75% was applied. Sodium currents were elicited by a depolarizing step from a holding potential of −100 mV to +10 mV for a duration of 25 ms at 15 s intervals. Compound 26 was applied after a 3 min control period and continued until a steady state current amplitude was observed. All data represent percentage mean block±standard error of the mean (S.E.M.).

T1 sequence (Q99250 whole entry): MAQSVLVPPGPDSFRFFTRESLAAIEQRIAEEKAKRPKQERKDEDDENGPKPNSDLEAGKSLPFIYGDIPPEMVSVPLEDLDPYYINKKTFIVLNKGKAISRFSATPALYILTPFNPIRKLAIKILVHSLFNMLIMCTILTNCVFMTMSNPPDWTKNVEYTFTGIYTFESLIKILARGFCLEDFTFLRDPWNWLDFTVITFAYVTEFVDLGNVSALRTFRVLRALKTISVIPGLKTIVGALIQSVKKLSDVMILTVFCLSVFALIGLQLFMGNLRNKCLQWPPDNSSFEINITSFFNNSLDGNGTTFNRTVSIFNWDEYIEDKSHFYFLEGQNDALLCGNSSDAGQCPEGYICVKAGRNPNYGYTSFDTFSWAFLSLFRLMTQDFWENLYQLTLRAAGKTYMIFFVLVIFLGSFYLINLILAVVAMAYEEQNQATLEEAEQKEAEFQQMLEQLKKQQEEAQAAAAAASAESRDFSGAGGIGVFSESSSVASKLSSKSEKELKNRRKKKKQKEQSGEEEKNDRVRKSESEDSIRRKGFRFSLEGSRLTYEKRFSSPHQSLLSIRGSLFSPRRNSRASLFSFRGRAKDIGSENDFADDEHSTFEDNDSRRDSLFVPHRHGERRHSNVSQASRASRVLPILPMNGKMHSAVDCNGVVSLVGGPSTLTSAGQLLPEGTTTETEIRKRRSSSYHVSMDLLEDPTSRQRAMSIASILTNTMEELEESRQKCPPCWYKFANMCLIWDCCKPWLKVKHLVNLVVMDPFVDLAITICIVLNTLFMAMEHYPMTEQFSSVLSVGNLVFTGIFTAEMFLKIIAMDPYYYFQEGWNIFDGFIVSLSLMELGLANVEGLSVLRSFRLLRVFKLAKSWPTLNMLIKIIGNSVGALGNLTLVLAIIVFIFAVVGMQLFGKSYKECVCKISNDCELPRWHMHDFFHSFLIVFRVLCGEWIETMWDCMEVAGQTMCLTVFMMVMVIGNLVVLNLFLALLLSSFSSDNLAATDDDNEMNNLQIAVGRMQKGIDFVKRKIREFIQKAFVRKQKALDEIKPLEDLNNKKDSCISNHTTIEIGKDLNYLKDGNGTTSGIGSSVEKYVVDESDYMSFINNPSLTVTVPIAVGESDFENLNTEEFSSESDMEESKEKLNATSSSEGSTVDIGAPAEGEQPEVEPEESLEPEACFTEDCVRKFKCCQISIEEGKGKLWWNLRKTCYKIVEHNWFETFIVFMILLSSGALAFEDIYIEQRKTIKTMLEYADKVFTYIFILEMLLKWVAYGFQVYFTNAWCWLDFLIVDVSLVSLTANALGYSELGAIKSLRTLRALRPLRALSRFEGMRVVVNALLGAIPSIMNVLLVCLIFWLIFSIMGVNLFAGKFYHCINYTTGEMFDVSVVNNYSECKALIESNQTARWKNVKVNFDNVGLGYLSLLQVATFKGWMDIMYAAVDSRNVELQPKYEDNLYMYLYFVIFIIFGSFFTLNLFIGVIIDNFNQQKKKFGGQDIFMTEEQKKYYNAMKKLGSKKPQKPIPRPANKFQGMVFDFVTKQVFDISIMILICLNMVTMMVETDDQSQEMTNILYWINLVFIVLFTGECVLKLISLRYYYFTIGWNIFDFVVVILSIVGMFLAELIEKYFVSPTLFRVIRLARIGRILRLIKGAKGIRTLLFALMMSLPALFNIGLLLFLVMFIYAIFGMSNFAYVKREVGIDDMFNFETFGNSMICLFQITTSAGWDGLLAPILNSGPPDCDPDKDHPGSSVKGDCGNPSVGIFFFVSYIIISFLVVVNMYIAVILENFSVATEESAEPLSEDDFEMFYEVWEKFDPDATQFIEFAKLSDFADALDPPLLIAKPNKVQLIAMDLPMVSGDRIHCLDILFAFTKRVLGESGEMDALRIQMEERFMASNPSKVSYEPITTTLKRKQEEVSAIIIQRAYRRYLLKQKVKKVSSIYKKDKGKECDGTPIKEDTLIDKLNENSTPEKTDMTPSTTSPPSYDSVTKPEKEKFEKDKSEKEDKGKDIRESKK

O=C1NC(=O)C(c2ccccc2)(c2ccccc2)N1 [DPH, Diphenylhydantoin, reference compound]
10.9 ± 4.2%: % hNaV 1.2 Functional Block (10 μM) (Table 8) | % hNaV 1.2 Functional Block (10 μM) (Table 9) | % Nav 1.2 Functional Block (10 μm) (10 μm, Table 13)
